Experimental data as given in US20200339511A1, “Substituted indoline derivatives as dengue viral replication inhibitors” (priority 2016, published 2020).
Like-named read-outs stand apart in the source and are kept apart here.

How the values were obtained:
DENV-3 strain H87 = experiment: Tetravalent RT-qPCR assay, serotype 3; type: cell-based, Dengue virus; details: RT-qPCR serotype 3 H87, Protocol A, Vero cells, day 3
Description: (§1) Tetravalent reverse transcriptase quantitative-PCR (RT-qPCR) assay The antiviral activity of the compounds of the invention was tested against DENV-1 strain TC974#666 (NCPV), DENV-2 strain 16681, DENV-3 strain H87 (NCPV) and DENV-4 strain H241 (NCPV) in a RT-qPCR assay. Therefore, Vero cells were infected with either DENV-1, or -2, or -3, or -4 in the presence or absence of test compounds. At day 3 post-infection, the cells were lysed and cell lysates were used to prepare cDNA of both a viral target (the 3′UTR of DENV; Table 2) and a cellular reference gene (β-actin, Table 2). Subsequently, a duplex real time PCR was performed on a Lightcycler480 instrument. The generated Cp value is inversely proportional to the amount of RNA expression of these targets. Inhibition of DENV replication by a test compound results in a shift of Cp's for the 3′UTR gene. On the other hand, if a test compound is toxic to the cells, a similar effect on β-actin expression will be observed. The comparative ΔΔCp method is used to calculate EC50, which is based on the relative gene expression of the target gene (3′UTR) normalized with the cellular housekeeping gene (β-actin). In addition, CC50 values are determined based on the Cp values acquired for the housekeeping gene β-actin.
(§2) The culture medium consisted of minimal essential medium supplemented with 2% of heat-inactivated fetal calf serum, 0.04% gentamycin (50mg/mL) and 2 mM of L-glutamine. Vero cells, obtained from ECACC, were suspended in culture medium and 75 μL/well was added in 96-well plates (10000 cells/well), which already contain the antiviral compounds. […] In addition, each plate contains wells which are assigned as virus controls (containing cells and virus in the absence of compound) and cell controls (containing cells in the absence of virus and compound). Once the cells were added in the plates, the plates were incubated in a fully humidified incubator (37° C., 5% CO2) until the next day. Dengue viruses serotype-1, 2, 3 and 4 were diluted in order to obtain a Cp of ˜22-24 in the assay. Therefore, 25 μL of virus suspension was added to all the wells containing test compound and to the wells assigned as virus control. In parallel, 25 μL of culture medium was added to the cell controls. Next, the plates were incubated for 3 days in a fully humidified incubator (37° C., 5% CO2). After 3 days, the supernatant was removed from the wells and the cells were washed twice with ice-cold PBS (˜100 μL). The cell pellets within the 96-well plates were stored at −80° C. for at least 1 day. Next, RNA was extracted using the Cells-to-CT™ lysis kit, according to the manufacturer's guideline (Life Technologies). The cell lysates can be stored at −80° C. or immediately used in the reverse transcription step.
(§3) In preparation of the reverse transcription step, mix A (table 3A) was prepared and 7.57 μL/well was dispensed in a 96-well plate. After addition of 5 μL of the cell lysates, a five minute denaturation step at 75° C. was performed (table 3B). Afterwards, 7.43 μL of mix B was added (table 3C) and the reverse transcription step was initiated (table 3D) to generate cDNA.
(§4) Finally, a RT-qPCR mix was prepared, mix C (table 4A), and 22.02 μL/well was dispensed in 96-well LightCycler qPCR plates to which 3μL of cDNA was added and the qPCR was performed according to the conditions in table 4B on a LightCycler 480.
(§5) Using the LightCycler software and an in-house LIMS system, dose response curves for each compound were calculated and the half maximal effective concentration (EC50) and the half maximal cytotoxic concentration (CC50) were determined (Tables 5-8).

Vero cells = details: African green monkey
DENV-2 16681 strain = experiment: DENV-2 antiviral assay (eGFP-labeled virus in Vero cells); type: cell-based, Dengue virus; details: DENV-2 16681 eGFP, MOI 0.5, 3 days
Description: The antiviral activity of all the compounds of the invention was tested the against DENV-2 16681 strain which was labeled with enhanced green fluorescent protein (eGPF). The culture medium consists of minimal essential medium supplemented with 2% of heat-inactivated fetal calf serum, 0.04% gentamycin (50 mg/mL) and 2 mM of L-glutamine. Vero cells, obtained from ECACC, were suspended in culture medium and 25 μL was added to 384-well plates (2500 cells/well), which already contain the antiviral compounds. Typically, these plates contain a 5-fold serial dilution of 9 dilution steps of the test compound at 200 times the final concentration in 100% DMSO (200 nL). […] Finally, each plate contains wells which are assigned as virus controls (containing cells and virus in the absence of compound), cell controls (containing cells in the absence of virus and compound) and medium controls (containing medium in the absence of cells, virus and compounds). To the wells assigned as medium control, 25 μL of culture medium was added instead of Vero cells. Once the cells were added to the plates, the plates were incubated for 30 minutes at room temperature to allow the cells to distribute evenly within the wells. Next, the plates were incubated in a fully humidified incubator (37° C., 5% CO2) until the next day. Then, DENV-2 strain 16681, labeled with eGFP, was added at a multiplicity of infection (MOI) of 0.5. Therefore, 15 μL of virus suspension was added to all the wells containing test compound and to the wells assigned as virus control. In parallel, 15 μL of culture medium was added to the medium and cell controls. Next, the plates were incubated for 3 days in a fully humidified incubator (37° C., 5% CO2). At the day of the read out, the eGFP fluorescence was measured using an automated fluorescence microscope at 488 nm (blue laser). Using an in-house LIMS system, inhibition dose response curves for each compound were calculated and the half maximal effective concentration (EC50) was determined. Therefore, the percent inhibition (I) for every test concentration is calculated using the following formula: I=100*(ST-SCC)/(SVC-SCC), ST, SCC and SVC are the amount of eGFP signal in the test compound, cell control and virus control wells, respectively. The EC50 represents the concentration of a compound at which the virus replication is inhibited with 50%, as measured by a 50% reduction of the eGFP fluorescent intensity compared to the virus control. The EC50 is calculated using linear interpolation (Table 1).

DENV-4 strain H241 = experiment: Tetravalent RT-qPCR assay, serotype 4; type: cell-based, Dengue virus; details: RT-qPCR serotype 4 H241, Protocol A, Vero cells, day 3, read-out: EC50
Description: as §1, §2, §3, §4, §5

DENV-1 strain TC974#666 = experiment: Tetravalent RT-qPCR assay, serotype 1; type: cell-based, Dengue virus; details: RT-qPCR serotype 1 TC974#666, Protocol A, Vero cells, day 3
Description: as §1, §2, §3, §4, §5

DENV-2 strain 16681 = experiment: Tetravalent RT-qPCR assay, serotype 2; type: cell-based, Dengue virus; details: RT-qPCR serotype 2 16681, Protocol A, Vero cells, day 3
Description: as §1, §2, §3, §4, §5

in vitro = details: African green monkey
[1] = Dengue virus, DENV3, Vero, 72 h
[2] = Dengue virus, DENV4, Vero, 72 h
[3] = Dengue virus, DENV1, Vero, 72 h
[4] = Dengue virus, DENV2, Vero, 72 h

SMILES: COc1cc(NC(C(=O)N2CCc3cc(OC)c(C(F)(F)F)cc32)c2ccc(Cl)cc2OC)cc(OCCO)c1 (single isomer, unassigned) [Compound 11B, 2-(4-chloro-2-methoxyphenyl)-2-((3-(2-hydroxyethoxy)-5-methoxyphenyl)amino)-1-(5-methoxy-6-(trifluoromethyl)indolin-1-yl)ethanone]
- EC50 (DENV-3 strain H87; [1]): 34 nM
- CC50 (Vero cells): > 25000 nM
- EC50 (DENV-2 16681 strain): 1.6 nM
- EC50 (DENV-4 strain H241; [2]): 280 nM
- EC50 (DENV-1 strain TC974#666; [3]): 7.8 nM
- EC50 (DENV-2 strain 16681; [4]): 2 nM

SMILES: COc1cc(NC(C(=O)N2CCc3ccc(C(F)(F)F)cc32)c2ccc(Cl)cc2)cc(OCCO)c1 (single isomer, unassigned) [Compound 4A, 2-(4-chlorophenyl)-2-((3-(2-hydroxyethoxy)-5-methoxyphenyl)amino)-1-(6-(trifluoromethyl)indolin-1-yl)ethanone]
- EC50 (DENV-3 strain H87): 27 nM
- CC50 (in vitro): 12000 nM
- EC50 (DENV-2 16681 strain): 3.6 nM
- EC50 (DENV-4 strain H241): 210 nM
- EC50 (DENV-1 strain TC974#666): 3.9 nM
- EC50 (DENV-2 strain 16681): 4.3 nM

SMILES: COc1cc(NC(C(=O)N2CCc3ccc(C(F)(F)F)cc32)c2ccc(Cl)cc2OC)cc(OCCO)c1 (single isomer, unassigned) [Compound 1B, 2-(4-chloro-2-methoxyphenyl)-2-((3-(2-hydroxyethoxy)-5-methoxyphenyl)amino)-1-(6-(trifluoromethyl)indolin-1-yl)ethanone]
- EC50 (DENV-3 strain H87; [1]): 56 nM
- CC50 (Vero cells): 12000 nM
- EC50 (DENV-2 16681 strain): 3.6 nM
- EC50 (DENV-4 strain H241; [2]): 250 nM
- EC50 (DENV-1 strain TC974#666; [3]): 4.4 nM
- EC50 (DENV-2 strain 16681; [4]): 3.6 nM

SMILES: COc1cc(NC(C(=O)N2CCc3cc(F)c(C(F)(F)F)cc32)c2ccc(Cl)cc2)cc(OCCO)c1 (single isomer, unassigned) [Compound 12A, 2-(4-chlorophenyl)-1-(5-fluoro-6-(trifluoromethyl)indolin-1-yl)-2-((3-(2-hydroxyethoxy)-5-methoxyphenyl)amino)ethanone]
- EC50 (DENV-3 strain H87; [1]): 40 nM
- CC50 (in vitro): 12000 nM
- EC50 (DENV-2 16681 strain): 2.3 nM
- EC50 (DENV-4 strain H241; [2]): 240 nM
- EC50 (DENV-1 strain TC974#666; [3]): 3.3 nM
- EC50 (DENV-2 strain 16681; [4]): 4.4 nM

SMILES: COc1cc(NC(C(=O)N2CCc3c(C)cc(C(F)(F)F)cc32)c2ccc(Cl)cc2)cc(OCCO)c1 (single isomer, unassigned) [Compound 10B, 2-(4-chlorophenyl)-2-((3-(2-hydroxyethoxy)-5-methoxy-phenyl)amino)-1-(4-methyl-6-(trifluoromethyl)indolin-1-yl)ethanone]
- EC50 (DENV-3 strain H87; [1]): 16 nM
- CC50 (Vero cells): 11000 nM
- EC50 (DENV-2 16681 strain): 2.2 nM
- EC50 (DENV-4 strain H241; [2]): 160 nM
- EC50 (DENV-1 strain TC974#666; [3]): 1.7 nM
- EC50 (DENV-2 strain 16681; [4]): 2.3 nM

SMILES: COc1cc(NC(C(=O)N2CCc3cc(OC)c(OC(F)(F)F)cc32)c2ccc(Cl)cc2)cc(OCCO)c1 (racemic) [Compound 13, 2-(4-chlorophenyl)-2-((3-(2-hydroxyethoxy)-5-methoxyphenyl)amino)-1-(5-methoxy-6-(trifluoromethoxy)indolin-1-yl)ethanone]
- CC50 (in vitro): 13000 nM
- melting point: 165 °C
- EC50 (DENV-2 16681 strain; [4]): 4.9 nM

SMILES: COc1cc(NC(C(=O)N2CCc3cc(OC)c(C(F)(F)F)cc32)c2ccc(Cl)cc2F)cc(OCCO)c1 (single isomer, unassigned) [Compound 8B, 2-(4-chloro-2-fluorophenyl)-2-((3-(2-hydroxyethoxy)-5-methoxyphenyl)amino)-1-(5-methoxy-6-(trifluoromethyl)indolin-1-yl)ethanone]
- EC50 (DENV-3 strain H87; [1]): 50 nM
- CC50 (Vero cells): ≥ 76000 nM
- EC50 (DENV-2 16681 strain): 1.9 nM
- EC50 (DENV-4 strain H241; [2]): 120 nM
- EC50 (DENV-1 strain TC974#666; [3]): 8.1 nM
- EC50 (DENV-2 strain 16681; [4]): 2.3 nM

SMILES: COc1cc(NC(C(=O)N2CCc3c(C)cc(OC(F)(F)F)cc32)c2ccc(Cl)cc2)cc(OCCO)c1 (single isomer, unassigned) [Compound 9B, 2-(4-chlorophenyl)-2-((3-(2-hydroxyethoxy)-5-methoxy-phenyl)amino)-1-(4-methyl-6-(trifluoromethoxy)indolin-1-yl)ethanone]
- EC50 (DENV-3 strain H87; [1]): 16 nM
- CC50 (Vero cells): 11000 nM
- EC50 (DENV-2 16681 strain): 1.4 nM
- EC50 (DENV-4 strain H241; [2]): 110 nM
- EC50 (DENV-1 strain TC974#666; [3]): 2.7 nM
- EC50 (DENV-2 strain 16681; [4]): 1.2 nM

SMILES: COc1cc(NC(C(=O)N2CCc3ccc(C(F)(F)F)cc32)c2ccc(Cl)cc2)cc(OCCO)c1 (single isomer, unassigned) [Compound 4B, 2-(4-chlorophenyl)-2-((3-(2-hydroxyethoxy)-5-methoxyphenyl)amino)-1-(6-(trifluoromethyl)indolin-1-yl)ethanone]
- EC50 (DENV-3 strain H87): > 1900 nM
- CC50 (Vero cells): 14000 nM
- EC50 (DENV-2 16681 strain): 1100 nM
- EC50 (DENV-4 strain H241): > 2500 nM
- EC50 (DENV-1 strain TC974#666): 700 nM
- EC50 (DENV-2 strain 16681): 1000 nM

SMILES: COc1cc(NC(C(=O)N2CCc3ccc(OC(F)(F)F)cc32)c2ccc(Cl)cc2)cc(OCCO)c1 (single isomer, unassigned) [Compound 3A, 2-(4-chlorophenyl)-2-((3-(2-hydroxyethoxy)-5-methoxyphenyl)amino)-1-(6-(trifluoromethoxy)indolin-1-yl)ethanone]
- EC50 (DENV-3 strain H87; [1]): 29 nM
- CC50 (in vitro): 9600 nM
- EC50 (DENV-2 16681 strain): 2.3 nM
- EC50 (DENV-4 strain H241; [2]): 190 nM
- EC50 (DENV-1 strain TC974#666; [3]): 3.6 nM
- EC50 (DENV-2 strain 16681; [4]): 2.2 nM
